Data from publication PMC8041284, “Tunable Methacrylamides for Covalent Ligand Directed Release Chemistry” (Journal of the American Chemical Society, 2021).
*1 amine or outer side, *2 acyl side, *3 side chain or, on linkers, in order; H or OH if unused. Where a SMILES comes first, the peptide text is derived from it. Bridges are numbered along the chain shown (N, C = ends). Roman numbers before positions name the chains, in order. [ ]: non-standard residue; d: D form. Hexamethylenediamine = C(CCCN[*:2])CCN[*:1]; Dip = N[C@H](C(=O)O)C(c1ccccc1)c1ccccc1; Chg = N[C@H](C(=O)O)C1CCCCC1; NMeA = CN[C@@H](C)C(=O)O

The compounds below were run against BTK (Homo sapiens, UniProt Q06187) (assay: biochemical). Details: read-out: BTK inhibition (%).
Chain of BTK (Q06187 402-655 limits assumed): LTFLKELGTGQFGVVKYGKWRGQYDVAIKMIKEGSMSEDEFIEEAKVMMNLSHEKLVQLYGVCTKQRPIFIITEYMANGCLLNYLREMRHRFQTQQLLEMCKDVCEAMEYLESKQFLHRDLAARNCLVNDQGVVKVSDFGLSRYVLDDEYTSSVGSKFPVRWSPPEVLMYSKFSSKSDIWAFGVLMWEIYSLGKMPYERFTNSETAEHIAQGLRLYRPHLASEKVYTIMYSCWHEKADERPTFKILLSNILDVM

In the case of `COc1cc(C)[nH]c(=O)c1CNC(=O)c1c(C)n([C@H](C)C2CCOCC2)c2ccccc12` [PCM-0214591], the inhibition at 10 µM is reported as -24.7%.

Same assay, conditions: read-out: BTK inhibition (%), 0.75 uM BTK, […] probe 3l, 15 min preincubation

Going from `CN1C(=O)[C@@H](NC(=O)c2cc(Cc3ccccc3)on2)COc2ccccc21` [PCM-0213452] to `CN(C)CC(=O)Nc1ccc2[nH]c(=O)c3ccccc3c2c1` [PCM-0213810], the inhibition at 10 µM falls from 3.1% to -7.7%.

Compared with `CN(C)C/C=C/C(=O)Nc1ccc(C(=O)Nc2cccc(Nc3ncc(Cl)c(-c4c[nH]c5ccccc45)n3)c2)cc1` [PCM-0213464], `O=C(CCCCCCNC(=O)c1cnc(N(c2ccccc2)c2ccccc2Cl)nc1)NO` [PCM-0214593] is lower in inhibition at 10 µM: 117% for the first, -6.9% for the second.

Compared with `CC(=O)OC(C)(C)CCC(=O)[C@](C)(O)[C@H]1[C@H](O)C[C@@]2(C)[C@@H]3CC=C4[C@@H](C[C@H](O)[C@@H](O)C4(C)C)[C@]3(C)C(=O)C[C@]12C` [PCM-0214543], `CO[C@H]1C[C@@H]2CC[C@@H](C)[C@@](O)(O2)C(=O)C(=O)N2CCCC[C@H]2C(=O)O[C@H]([C@H](C)C[C@@H]2CC[C@@H](OCCO)[C@H](OC)C2)CC(=O)[C@H](C)/C=C(\C)[C@@H](O)[C@@H](OC)C(=O)[C@H](C)C[C@H](C)/C=C/C=C/C=C/1C` [PCM-0214563] is higher in inhibition at 10 µM: -13.8% for the first, -12.4% for the second.

Going from `COc1ccc(/C=C/c2cc(O)cc(O[C@@H]3O[C@H](CO)[C@@H](O)[C@H](O)[C@H]3O)c2)cc1O` [PCM-0214544] to `COC(=O)c1ccc([C@H]2C3Nc4ccccc4C3C[C@H](C(=O)OC)N2C(=O)CCl)cc1` (stereo partly drawn) [PCM-0214584], the inhibition at 10 µM rises from 6.9% to 35.5%.

Compared with `C[C@@H](O[C@H]1OCCN(Cc2n[nH]c(=O)[nH]2)[C@H]1c1ccc(F)cc1)c1cc(C(F)(F)F)cc(C(F)(F)F)c1` [PCM-0214564], `CCS(=O)(=O)Nc1ccc(Oc2ccc(F)cc2F)c(-c2cn(C)c(=O)c3[nH]ccc23)c1` [PCM-0214596] is higher in inhibition at 10 µM: -8.3% for the first, 16.2% for the second.

Going from `NC(=O)[C@@H](CCC(F)(F)F)N(Cc1ccc(-c2ncon2)cc1F)S(=O)(=O)c1ccc(Cl)cc1` [PCM-0214565] to `CC1(O)CC(c2nc(-c3ccc4ccc(-c5ccccc5)nc4c3)c3c(N)nccn23)C1` (stereo not drawn) [PCM-0214568], the inhibition at 10 µM rises from 9.3% to 33.1%.

Going from `CC1(C)CC(=O)c2c(C(F)(F)F)nn(-c3ccc(C(N)=O)c(NC4CCC(O)CC4)c3)c2C1` (stereo not drawn) [PCM-0214567] to `OC1CCC(Nc2ncc3nc(Nc4c(F)cc(F)cc4F)n([C@H]4CCOC4)c3n2)CC1` (stereo partly drawn) [PCM-0214575], the inhibition at 10 µM rises from -36.6% to -10.3%.

First: COCCCOc1cc(C[C@@H](C[C@H](N)[C@@H](O)C[C@H](C(=O)NCC(C)(C)C(N)=O)C(C)C)C(C)C)ccc1OC [PCM-0214569]
Second: COc1cc(C)[nH]c(=O)c1CNC(=O)c1c(C)n([C@H](C)C2CCN(CC(F)(F)F)CC2)c2ccccc12 [PCM-0214592]
The inhibition at 10 µM of the first is lower: 7% for the first, 21.6% for the second.

Going from `CC[C@H](NC(=O)[C@H](C)NC)C(=O)N1C[C@@H](O)C[C@H]1Cc1c(-c2[nH]c3cc(F)ccc3c2C[C@@H]2C[C@H](O)CN2C(=O)[C@H](CC)NC(=O)[C@H](C)NC)[nH]c2cc(F)ccc12` [PCM-0214572] to `CN[C@@H](C)C(=O)N[C@H](C(=O)N1CCC[C@H]1C(=O)N[C@H](C(=O)NCCCCCCNC(=O)[C@@H](NC(=O)[C@@H]1CCCN1C(=O)[C@@H](NC(=O)[C@H](C)NC)C1CCCCC1)C(c1ccccc1)c1ccccc1)C(c1ccccc1)c1ccccc1)C1CCCCC1` [PCM-0214574] (I: H-[NMeA][Chg]P[Dip] / II: H-[NMeA][Chg]P[Dip]; linker I:C-II:C via Hexamethylenediamine), the inhibition at 10 µM falls from 5.4% to -1.5%.

Compared with `N#Cc1cnc(Nc2cc(NC[C@H]3CNCCO3)c(C(F)(F)F)cn2)cn1` [PCM-0214576], `CO[C@H]1C[C@@H]2CC[C@@H](C)[C@@](O)(O2)C(=O)C(=O)N2CCCC[C@H]2C(=O)O[C@H]([C@H](C)C[C@@H]2CC[C@@H](OP(C)(C)=O)[C@H](OC)C2)CC(=O)[C@H](C)/C=C(\C)[C@@H](O)[C@@H](OC)C(=O)[C@H](C)C[C@H](C)/C=C/C=C/C=C/1C` [PCM-0214600] is lower in inhibition at 10 µM: -0.7% for the first, -16.6% for the second.
